According to patent US9662310B2, “Cyclopropanecarboxylic acid derivative” (DAIICHI SANKYO COMPANY, LIMITED, priority 2010, dated 2017):
Counter-ions that a name gives are not always drawn.

biological target: TAFIa (Homo sapiens (Human), UniProt Q96IY4); assay: Determination of TAFIa enzyme inhibitory activity (FAAK substrate degradation); type: biochemical; details: TAFI activated with human thrombin / rabbit lung thrombomodulin; substrate FAAK, absorbance at 330 nm; read-out: TAFIa IC50
Protocol: Determination of TAFIa Enzyme Inhibitory Activity
HEPES buffered saline (20 mM HEPES, 150 mM NaCl, pH 7.4; hereinafter, referred to as HBS) was used in the preparation of a reaction solution. To 12 μL of a 250 μg/mL TAFI solution, 30 μL of an HBS solution containing 4 U/mL human thrombin, 12 U/mL rabbit lung thrombomodulin, and 12 mM CaCl2 was added, and the mixture was gently stirred. Then, TAFI was activated at room temperature. Ten minutes later, thrombin was neutralized by the addition of 10 μL of 100 μM PPACK (thrombin inhibitor) to terminate the activation of TAFI. The formed TAFIa was stored in ice and diluted immediately before use in determination with 2050 μL of an HBS solution containing BSA (bovine serum albumin) adjusted to 0.1% in terms of the final concentration.
(2) Determination of TAFIa Inhibitory Activity
A test substance was dissolved in HBS to prepare a 10-fold dilution series of evaluation concentrations. 80 μL of the TAFIa solution and 10 μL of the test substance were added to each well of a 96-well plate and mixed by shaking for 10 minutes. 10 μL of furylacryloyl-alanyl-lysine (FAAK) adjusted to 5 mg/mL was added to each well, and the change in the absorbance of this mixed solution at 330 nm was read for 30 minutes to determine the degradation rate of the substrate.
(3) Calculation of Inhibitory Activity IC50
The degradation rate of the substrate in each well was applied to a standard curve prepared using the dilution series of the TAFIa solution to calculate TAFIa activity.

Sequence of TAFIa (Q96IY4 115-423): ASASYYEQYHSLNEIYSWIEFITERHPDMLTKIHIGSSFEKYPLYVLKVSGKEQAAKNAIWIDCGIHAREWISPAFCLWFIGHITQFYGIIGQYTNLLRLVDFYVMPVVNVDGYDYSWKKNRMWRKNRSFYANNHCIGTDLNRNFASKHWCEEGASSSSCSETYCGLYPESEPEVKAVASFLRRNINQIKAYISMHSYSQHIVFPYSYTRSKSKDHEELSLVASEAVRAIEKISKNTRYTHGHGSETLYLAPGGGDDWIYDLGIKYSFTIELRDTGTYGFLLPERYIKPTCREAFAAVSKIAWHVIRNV

Molecule | IC50 [nM]
Cc1ccc(-n2cnc([C@]3(C(=O)O)C[C@H]3C[C@@H](C)CN)c2)nc1 [Example 59, (1S,2R)-2-[(2R)-3-Amino-2-methylpropyl]-1-[1-(5-methylpyridin-2-yl)-1H-imidazol-4-yl]cyclopropanecarboxylic acid] | 500
NCCC[C@H]1C[C@]1(C(=O)O)c1cn(-c2cc3ccccc3cn2)cn1 (relative stereo) [Example 46, (1R*,2S*)-2-(3-Aminopropyl)-1-(1-isoquinolin-3-yl-1H-imidazol-4-yl)cyclopropanecarboxylic acid] | 16
COc1ccc(-n2cnc([C@@]3(C(=O)O)C[C@@H]3CCCN)c2)nc1 (relative stereo) [Example 44, (1R*,2S*)-2-(3-Aminopropyl)-1-[1-(5-methoxypyridin-2-yl)-1H-imidazol-4-yl]cyclopropanecarboxylic acid] | 16
NCCC[C@H]1C[C@]1(C(=O)O)c1cn(-c2ccc(O)nc2)cn1 (relative stereo) [Example 35, (1R*,2S*)-2-(3-Aminopropyl)-1-[1-(6-hydroxypyridin-3-yl)-1H-imidazol-4-yl]cyclopropanecarboxylic acid] | 340
CCOC(=O)[C@]1(c2cn(-c3ccc(C)cc3)cn2)C[C@@H]1CCCN (relative stereo) [Example 26, Ethyl (1R*,2S*)-2-(3-aminopropyl)-1-[1-(4-methylphenyl)-1H-imidazol-4-yl]cyclopropanecarboxylate hydrochloride] | 10000
C[C@@H](CN)C[C@@H]1C[C@@]1(C(=O)O)c1cn(-c2ccccn2)cn1 [Example 55, (1S,2R)-2-[(2R)-3-Amino-2-methylpropyl]-1-(1-pyridin-2-yl-1H-imidazol-4-yl]cyclopropanecarboxylic acid] | > 3000
NCCC[C@H]1C[C@]1(C(=O)O)c1cn(-c2ccc3ccccc3c2)cn1 (relative stereo) [Example 21, (1R*,2S*)-2-(3-Aminopropyl)-1-[1-(2-naphthyl)-1H-imidazol-4-yl]cyclopropanecarboxylic acid] | 27
NCCC[C@H]1C[C@]1(C(=O)O)c1cn(-c2ccc(F)cc2)cn1 (relative stereo) [Example 15, (1R*,2S*)-2-(3-Aminopropyl)-1-[1-(4-fluorophenyl)-1H-imidazol-4-yl]cyclopropanecarboxylic acid] | 21
C[C@H](CN)C[C@@H]1C[C@@]1(C(=O)O)c1cn(-c2ccccn2)cn1 [Example 57, (1S,2R)-2-[(2S)-3-Amino-2-methylpropyl]-1-(1-pyridin-2-yl-1H-imidazol-4-yl]cyclopropanecarboxylic acid] | 490

same assay, conditions: TAFIa IC50

Molecule | IC50 [nM]
CC(C)(C)CCn1cnc(C2(C(=O)O)CC2CCCN)c1 (single isomer, unassigned) [Example 1, (1R*,2S*)-2-(3-Aminopropyl)-1-[1-(3,3-dimethylbutyl)-1H-imidazol-4-yl]cyclopropanecarboxylic acid] | 8.7

tested on: iron chloride-induced thrombus models; assay: not given; details: mice, intravenous administration; cited from earlier work

Molecule | antithrombotic effect
potato carboxypeptidase inhibitor (PCI) (QQHADPICNKPCKTHDDCSGAWFCQACWNSARTCGPYVG; UniProt P01075 1-39, looked up) | antithrombotic effect
